Laboratory results from patent publication US11406642B2, “DNP and DNP prodrug treatment of neuromuscular, neurodegenerative, autoimmune, developmental, traumatic brain injury, concussion, dry eye disease, hearing loss and/or metabolic diseases” (priority 2016, dated 2022).
Where two headings read alike, the source gives them in different places.

Key:
[1] = Plasma pharmacokinetics of II-38 and 2,4-DNP released from II-38; format: in vivo, Sprague-Dawley male rats; details: for half-life: read-out: t1/2 of II-38; for bioavailability: read-out: % F of II-38
Protocol: The oral bioavailability and plasma pharmacokinetic (PK) properties of II-38 prodrug and 2,4-DNP-released from II-38 prodrug was investigated in Sprague-Dawley (S-D) male rats after a single i.v. injection of II-38 at 1.6 mg/kg (eq. to 1 mg/kg 2,4-DNP) and an oral dose eq. to 5, 25 and 50 mg/kg of 2,4-DNP. Blood samples were taken up to […].
All procedures that involved the use of rats were conducted in accordance with the guidelines set forth by the University of Arkansas for Medical Sciences (UAMS) Institutional Animal Care and Use Committee established by the National Institutes of Health's Guide for the Care and Use of Laboratory Animals (1996). Male Sprague-Dawley rats weighing 250-300 grams were housed three per cage with ad libitum access to food and water in the Division of Laboratory Animal Resources, UAMS. Rats were anesthetized with isofluorane (2-5%)/oxygen (1.5-2.0 L/min) and surgically implanted with cannulae in the jugular (i.v. dosing) and femoral (blood sampling) veins. […] Following appropriate evidence of successful recovery from surgery, IV or oral dosing was performed and blood samples (0.15 mL) were collected at 0, 5, 15, 30, 45, 60, 120, 240 and 480 min. Plasma samples were prepared and analysis was run using a LC/MS/MS spectrometry.
For the i.v. injection, a total volume of 0.8 mL/kg was used at a dose of 1.6 mg/kg (eq. to 1 mg/kg of 2,4-DNP). For the oral route, stock solutions of II-38 containing eq. to 1, 5 and 25 mg/mL of 2,4-DNP were prepared and administered to rats at final doses eq. to 1, 5 and 25 mg/kg of 2,4-DNP, respectively. An oral dose of 8 mg/kg of II-38 (eq. to 5 mg/kg) was dissolved in a phosphate-saline buffer solution, pH 7.4 containing 5% DMSO and 20% PEG-400, while a dose of 40 mg/kg (eq. to 25 mg/kg) was formulated with 0.5% methyl cellulose (methocel) containing 1% DMSO. A high dose of II-38 (eq. 50 mg/kg) was formulated with water containing 1% DMSO and 40% PEG-400. Because of the different vehicles used in formulations of II-38, a dose eq. to 25 mg/kg of 2,4-DNP was repeated using a vehicle consisting of DMSO, PEG-400, and water (1%: 40%: 59%). The later dose was utilized for comparison of PK data of 2,4-DNP-released from II-38 for differences in formulations.
Jugular and femoral vein-catheterized Sprague-Dawley male rats (weights 250-300 g, n=4) were treated with II-38 at a single oral dose of 8, 40 and 80 mg/kg (eq. to 5, 25 and 50 mg/kg of 2,4-DNP, respectively) or injected a single i.v. dose of 1.6 mg/kg of II-38 (eq. to 1 mg/kg 2,4-DNP, n=2). Blood samples (0.15 mL) were collected at 0, 5, 15, 30, 45, 60, 120, 240 and 480 min. Plasma samples were prepared and 2,4-DNP, II-38 and 2,4-DNP-released from II-38 concentrations were quantitated using the LC/MS/MS spectrometry assay method described below.
To isolate the analytes from rat plasma, 50 μL of control or treated plasma fortified with 10 μL of 2,4-DNP-d3 (10 μg/mL) as an internal standard to which 0.3 mL of methanol followed by 0.3 mL of acetonitrile was added. The mixture was vortex-mixed for 30 s and centrifuged for 10 min at 10,000 rpm at room temperature. The supernatant was transferred into 5 mL glass tubes and evaporated to dryness at 37° C. under nitrogen gas. The pellet was reconstituted with 50 μL of acetonitrile, vortex-mixed for 30 sec, followed by sonication for 1 min. Following centrifugation at 1000 rpm for 10 min at room temperature, 5 μL of the supernatant was then injected onto the column, and analytes were quantified by a LC/MS/MS spectrometry.
1—Plasma concentrations of 2,4-DNP after a single i.v. injection of 2,4-DNP of 1 mg/kg or 5 mg/kg oral administration; 2—Plasma concentrations of II-38 and 2,4-DNP-released from II-38 after an i.v. injection 1.6 mg/kg of II-38 eq. to 1 mg/kg of 2,4-DNP or an oral dose of 8, 40 and 80 mg/kg of II-38 eq. to 5, 25 and 50 mg/kg of 2,4-DNP, respectively. […]

[2] = tested on: noise induced hearing loss; experiment: In vivo noise exposure, Compound Action Potential threshold; parameters: species or system Rats; details: for CAP threshold (compound + Noise): noise 8 h, 105 dB, 8-16 kHz, 5 days oral gavage q.d., 2,4-DNP 5 mpk, II-38 80 mpk, 1-week post exposure; for threshold lower than Noise alone group: same study, Noise alone 25 dB
Protocol: In vivo Noise Exposure Pilot DNP (2,4-DNP) & Prodrug of DNP (II-38): Rats, N=6/group: control, noise alone, noise+2,4-DNP (5 mpk), noise+II-38 (80 mpk). Noise exposure: 8 h, 105 dB, noise band 8-16 kHz. Treatment duration 5 days oral gavage q.d. starting day of noise. Endpoint: Compound Action Potential (CAP) recorded from the round window membrane 1-week post exposure. Threshold: intensity in dB SPL needed to produce 4 μV CAP amplitude.

[3] = male, Sprague-Dawley, rat, in vivo, iv, 1.6 mg/kg, single i.v. injection of II-38 1.6 mg/kg (eq. to 1 mg/kg 2,4-DNP), n = 2
[4] = male, Sprague-Dawley, rat, in vivo, po, 5 mg/kg, oral II-38 eq. to 5 mg/kg of 2,4-DNP
[5] = male, Sprague-Dawley, rat, in vivo, po, 25 mg/kg, oral II-38 eq. to 25 mg/kg of 2,4-DNP, PEG-400
[6] = male, Sprague-Dawley, rat, in vivo, po, 25 mg/kg, oral II-38 eq. to 25 mg/kg of 2,4-DNP, methocel
[7] = male, Sprague-Dawley, rat, in vivo, po, 50 mg/kg, oral II-38 eq. 50 mg/kg of 2,4-DNP

Which AUC [1, 3] does the source give for `O=C(Oc1ccc([N+](=O)[O-])cc1[N+](=O)[O-])N1CCOCC1` [II-38, 2,4-Dinitrophenyl morpholine-4-carboxylate] here?
The AUC was 8600 ng·h/mL.

What about the Cmax [1, 3] of the same compound?
Its Cmax is 900 ± 50 ng/mL.

And the half-life [1, 3]?
Its half-life is 6.89 ± 1.09 h.

And the clearance ([1]; male, Sprague-Dawley, rat, in vivo, iv, single i.v. injection of II-38 1.6 mg/kg (eq. to 1 mg/kg 2,4-DNP), n = 2, read-out: Cl of II-38)?
Its clearance is 3.1 ± 0.3 mL/min/kg.

What about the Vd ([1]; male, Sprague-Dawley, rat, in vivo, iv, single i.v. injection of II-38 1.6 mg/kg (eq. to 1 mg/kg 2,4-DNP), n = 2, read-out: Vss of II-38) of the same compound?
Its Vd is 1.86 ± 0.101 L/kg.

What about the AUC [1, 4] of the same compound?
The AUC was 15000 ng·h/mL.

And the Cmax [1, 4]?
Its Cmax is 1100 ± 200 ng/mL.

And the Tmax [1, 4]?
Its Tmax is 2.19 h.

And the bioavailability [1, 4]?
The bioavailability was 44.8 ± 4.4%.

What about the half-life [1, 4] of the same compound?
The half-life was 15.2 ± 7 h.

What about the AUC [1, 5] of the same compound?
The AUC was 14600 ng·h/mL.

What about the Cmax [1, 5] of the same compound?
The Cmax was 2410 ± 300 ng/mL.

What about the Tmax [1, 5] of the same compound?
Its Tmax is 1.5 h.

And the bioavailability [1, 5]?
The bioavailability was 21.3 ± 0.9%.

What about the half-life [1, 5] of the same compound?
The half-life was 7.41 ± 3.06 h.

And the AUC [1, 6]?
Its AUC is 18400 ng·h/mL.

And the Cmax [1, 6]?
The Cmax was 1800 ± 300 ng/mL.

And the Tmax [1, 6]?
Its Tmax is 0.458 h.

What about the bioavailability [1, 6] of the same compound?
The bioavailability was 31.6 ± 1.2%.

What about the half-life [1, 6] of the same compound?
The half-life was 11 ± 4.2 h.

What about the AUC [1, 7] of the same compound?
Its AUC is 24300 ng·h/mL.

And the Cmax [1, 7]?
Its Cmax is 1900 ± 600 ng/mL.

What about the Tmax [1, 7] of the same compound?
Its Tmax is 1.69 h.

What about the bioavailability [1, 7] of the same compound?
The bioavailability was 24.5 ± 1.1%.

And the half-life [1, 7]?
Its half-life is 17.7 ± 6.96 h.

What about the “CAP threshold (compound + Noise)” value [2] of the same compound?
The value was 5 dB.

And the “threshold lower than Noise alone group” value [2]?
Its value is “approximately 20 dB”.

For `O=[N+]([O-])c1ccc(O)c([N+](=O)[O-])c1` [2,4-DNP, 2,4-dinitrophenol], which “fold increased level of 2,4-DNP after oral 2,4-DNP compared to 2,4-DNP released from II-38” value (“fold increased level of 2,4-DNP” below) ([1]; 2,4-DNP 5 mg/kg oral vs II-38 oral eq. to 5 mg/kg) is on record?
The value was “approximately 12.0 fold”.

What about the “fold increased level of 2,4-DNP” value ([1]; 2,4-DNP 5 mg/kg oral vs II-38 oral eq. to 25 mg/kg (PEG-400)) of the same compound?
Its value is roughly 3.4 fold.

What about the “fold increased level of 2,4-DNP” value ([1]; 2,4-DNP 5 mg/kg oral vs II-38 oral eq. to 25 mg/kg (methocel)) of the same compound?
The value was roughly 2.2 fold.

And the “fold increased level of 2,4-DNP” value ([1]; 2,4-DNP 5 mg/kg oral vs II-38 oral eq. to 50 mg/kg)?
The value was roughly 1.4 fold.

What about the “CAP threshold (compound + Noise)” value [2] of the same compound?
The value was 15 dB.

And the “threshold lower than Noise alone group” value [2]?
Its value is “about 10 dB”.
